Measured values reported in patent US20210391038A1, “SPECIFICALLY-SHAPED CRYSTAL OF COMPOUND AND METHOD FOR PRODUCING SAME” (TOWA PHARMACEUTICAL CO., LTD., priority 2018, published 2021).
Structures can show the parent of a compound that is named as a salt.

What was measured:
Type in all cases: physicochemical
[1] = Sphericity from SEM images (ImageJ); set-up: key: 1 = true sphere; closer to 1 = more spherical; mean of ≥5 particles; conditions: SEM image analysis, mean of particles
Description: In the present description, “spherulite” means a crystal aggregate (polycrystal) which has a radial or concentric thin layered structure and has a spherical outer shape. Whether the crystal obtained by the method of the present invention is a spherulite or not can be determined, for example, by observing the outer shape of the crystal using SEM. For example, it can be discriminated by cutting the crystal aggregate and observing the internal structure thereof using SEM. The sphericity of the spherulite obtained by the method of the present invention is usually 0.60 or more, preferably 0.70 or more, more preferably 0.80 or more, particularly preferably 0.90 or more, and most preferably 0.95 or more. The sphericity can be calculated by the following method.
When an image of particles taken by SEM is analyzed using image processing software ImageJ, a coordinate group representing the position of pixels forming the outline of a particle is obtained. The length of the coordinate group is defined as N, and one pixel coordinate of each outline is defined as p[i] (1≤i≤N). The angle between a straight line l(k) connecting two points p[k] and p[k+N/D] and a straight line m(k) connecting two points p[k+N/D] and p[k+2N/D] is defined as θ(k) (−180°<θ<180°) (1≤k≤N, 1≤D≤N). D corresponds to the number of partitions of the outline. When N/D is not a natural number, the value is defined as the quotient obtained by dividing N by D. By calculating this angle with k=1 to N, N pieces of θ value can be obtained.
When the particle is a true sphere, θ(k) is 360/D, and the closer the particle is to a true sphere, the closer θ(k) is to this value. The error between θ(k) and the true value 360/D is evaluated by the root-mean-square error (RMSE) of the following formula:
Using the RMSE value of when D is 10 (θ(k)=36°), the sphericity is defined by the following formula: […]
The sphericity is 1 in a true sphere, and the closer the particle is to a true sphere, the closer the sphericity is to 1. Meanwhile, the sphericity of an ellipse whose long axis is infinitely long is zero. The sphericity is measured for five or more particles to calculate the mean. This mean is defined as the sphericity of each sample (see FIGS. 42 and 43).

[2] = Particle size distribution (d50, sharpness index); set-up: key to sharpness index of the crystal thus obtained / sharpness index of the fine powders: calculated by formula from d10, d50, d90; 1.0 = most uniform particle size; conditions: for sharpness index of the crystal thus obtained: calculated from d10, d50, d90; for d50 of the crystal thus obtained: dry particle size distribution, volume based
Description: d10 in the present description is a value obtained from a particle size distribution analyzer, and represents a particle size of a particle corresponding to 10% of accumulation from the smaller particle side in the particle size distribution based on the volume.
d50 in the present description is a value obtained from a particle size distribution analyzer, and represents a particle size of a particle corresponding to 50% of accumulation from the smaller particle side in the particle size distribution based on the volume.
“Sharpness index” in the present description is an index representing the uniformity of a particle size of a particle in a powder, and a sharpness index of 1.0 represents a powder having the most uniform particle size. The closer the sharpness index is to 1.0, the more the particle size of the powder is uniform. Specifically, the sharpness index represents a value calculated using the following formula from the values of d10, d50, and d90 measured by a particle size distribution analyzer:
Images for measuring the number of particles were obtained by a scanner GT-X830 manufactured by SEIKO EPSON CORPORATION. The powder X-ray diffraction (XRD) was measured using a desktop X-ray diffraction device MiniFlex300 manufactured by Rigaku Corporation. […] The particle strength was measured using a particle hardness measuring device NEW GRANO manufactured by OKADA SEIKO CO., LTD. […] The purity of a compound was measured by a high performance liquid chromatograph (LC-20A) manufactured by Shimadzu Corporation.

[3] = Measurement of critical degree of supersaturation of spherulite; conditions: for Critical degree of supersaturation S Experimental value: solvent 2 H2O
Description: “Supersaturated solution” in the present description means a solution in a state of containing a solute exceeding the solubility. As the degree of supersaturation, “degree of supersaturation” can be used. Regarding the degree of supersaturation, when the concentration (mass concentration (g/g)) of a compound dissolved in a supersaturated solution is defined as C and the solubility of the compound is defined as Cs, the degree of supersaturation S can be represented by the following formula: […]
“Critical degree of supersaturation” in the present description means the lowest degree of supersaturation required to obtain a specifically-shaped crystal. […] The value of a critical degree of supersaturation varies depending on the shape of a crystal. For example, all of values of a critical degree of supersaturation required to obtain a plate crystal, a critical degree of supersaturation required to obtain a needle crystal, and a critical degree of supersaturation required to obtain a spherulite are different. The critical degree of supersaturation required to obtain a spherulite is higher than the critical degree of supersaturation required to obtain a plate crystal or a needle crystal.
The actual measured value of the critical degree of supersaturation (S*) can be measured as follows:
(1) 100 particles are observed by SEM. (2) 5 to 10 particles whose shape is close to a desired specific shape are selected, and the shape is evaluated. In particular, when the desired specific shape is a sphere, the sphericity is evaluated. (3) Based on the evaluation index of the shape, whether the selected particles have the desired specific shape or not is determined. In particular, when the desired specific shape is a sphere, the case where the sphericity is 0.60 or more is determined as a spherulite. (4) The above-mentioned operation is performed for each sample having a different degree of supersaturation during crystallization, and the minimum value of a degree of supersaturation having the specifically-shaped particles is determined as the critical degree of supersaturation. The difference between the maximum value of a degree of supersaturation not having the specifically-shaped particles and the critical degree of supersaturation should be 20% or less.
The critical degree of supersaturation of a spherulite of ketotifen fumarate was determined as follows. To 2.0 g of ketotifen fumarate, 10 mL (5 v/w) of methanol was added, followed by reflux to completely dissolve. This solution was added dropwise to 50 mL of isopropanol at 20° C. to prepare a supersaturated solution of ketotifen fumarate. The degree of supersaturation of the supersaturated solution at the end of dropwise addition was 9.0. The supersaturated solution was crystallized. The crystal was collected by filtration, followed by drying under reduced pressure at 40° C., thus obtaining a crystal of ketotifen fumarate.
Similarly, when a substrate and a solvent different from those mentioned above are used, a plurality of samples having a different degree of supersaturation are prepared and crystallized, and then the critical degree of supersaturation of the spherulite was measured.

| SMILES | sphericity of the spherulite [1] | sharpness index of the crystal thus obtained [2] | d50 of the crystal thus obtained [2] | further results |
| --- | --- | --- | --- | --- |
| O=C(O)CCCN1CCC(O[C@@H](c2ccc(Cl)cc2)c2ccccn2)CC1.O=S(=O)(O)c1ccccc1 [Example 30, bepotastine besilate] | 0.98±0.01 | 2.15 | 105 μm |  |
| CN1CCC(=C2c3ccccc3CC(=O)c3sccc32)CC1 [Example 1, ketotifen fumarate] | 0.78±0.02 |  |  |  |
| N[C@@H](CCC(=O)N[C@@H](CS)C(=O)NCC(=O)O)C(=O)O [Example 23, glutathione] | 0.85±0.07 | 2.27 | 48.4 μm |  |
| Cc1cccc(C)c1NC(=O)CC12CCCN1CCC2.Cl [Example 25, pilsicainide hydrochloride anhydride] | 0.69±0.18 | 2.29 | 116 μm |  |
| Cn1c(=O)c2[nH]cnc2n(C)c1=O.O.O.O.O.[Mg] [Example 26, theophylline magnesium salt tetrahydrate] | 0.95±0.02 | 3.06 | 43.0 μm |  |
| CCCCCCOC(=O)N=C(N)c1ccc(NCc2nc3cc(C(=O)N(CCC(=O)OCC)c4ccccn4)ccc3n2C)cc1 [Example 24, dabigatran etexilate methanesulfonate] | 0.95±0.03 | 2.61 | 61.3 μm |  |
| CC[C@H]1OC(=O)[C@H](C)[C@@H](O[C@H]2C[C@@](C)(OC)[C@@H](O)[C@H](C)O2)[C@H](C)[C@@H](O[C@@H]2O[C@H](C)C[C@H](N(C)C)[C@H]2O)[C@](C)(O)C[C@@H](C)CN(C)[C@H](C)[C@@H](O)[C@]1(C)O [Example 12, azithromycin monohydrate] | 0.89±0.02 | 1.5 | 75 μm |  |
| NC(CCC(=O)O)C(=O)O (racemic) [Example 14, DL-glutamic acid] | 0.95±0.03 |  |  |  |
| Cc1c(OCC(F)(F)F)ccnc1C[S+]([O-])c1nc2ccccc2[nH]1 (stereo not shown) [Example 11, lansoprazole] | 0.94±0.04 |  |  |  |
| Cc1ccccc1C(=O)Nc1ccc(C(=O)N2CCCC(O)c3cc(Cl)ccc32)c(C)c1 (stereo not shown) [Tolvaptan] |  |  |  | actual measured value of the critical degree of supersaturation [3]: 4.8; Critical degree of supersaturation S Experimental value ([3]; entry 54, solvent 1 MeOH, solvent 2/solvent 1 ratio 0.4, crystallization 0 °C): 4.8; Critical degree of supersaturation S Experimental value ([3]; entry 55, solvent 1 MeOH, solvent 2/solvent 1 ratio 0.4, crystallization 10 °C): 7.1 |
| N#C[C@@H]1CCCN1C(=O)CNC12CC3CC(CC(O)(C3)C1)C2 [Example 20, vildagliptin] | 0.99±0.01 |  |  |  |
| Cc1c(OCC(F)(F)F)ccnc1C[S+]([O-])c1nc2ccccc2[nH]1 (stereo not shown) [Lansoprazole] |  |  |  | actual measured value of the critical degree of supersaturation [3]: 10.9; Critical degree of supersaturation S Experimental value ([3]; entry 2, solvent 1 MeOH, solvent 2/solvent 1 ratio 3, crystallization 0 °C): 6.9; Critical degree of supersaturation S Experimental value ([3]; entry 20, solvent 1 MeOH, solvent 2/solvent 1 ratio 3, crystallization 15 °C): 12.6 |
| CC[C@H]1OC(=O)[C@H](C)[C@@H](O[C@H]2C[C@@](C)(OC)[C@@H](O)[C@H](C)O2)[C@H](C)[C@@H](O[C@@H]2O[C@H](C)C[C@H](N(C)C)[C@H]2O)[C@](C)(O)C[C@@H](C)CN(C)[C@H](C)[C@@H](O)[C@]1(C)O [Azithromycin monohydrate] |  |  |  | Critical degree of supersaturation S Experimental value ([3]; entry 11, solvent 1 IPA, solvent 2/solvent 1 ratio 10, crystallization 0 °C): 3.2; Critical degree of supersaturation S Experimental value ([3]; entry 14, solvent 1 IPA, solvent 2/solvent 1 ratio 20, crystallization 0 °C): 1.6; Critical degree of supersaturation S Experimental value ([3]; entry 15, solvent 1 Acetone, solvent 2/solvent 1 ratio 10, crystallization 0 °C): 6.2; Critical degree of supersaturation S Experimental value ([3]; entry 16, solvent 1 EtOH, solvent 2/solvent 1 ratio 20, crystallization 0 °C): 7.1; Critical degree of supersaturation S Experimental value ([3]; entry 17, solvent 1 MeOH, solvent 2/solvent 1 ratio 20, crystallization 0 °C): 7.5; Critical degree of supersaturation S Experimental value ([3]; entry 18, solvent 1 IPA, solvent 2/solvent 1 ratio 10, crystallization 20 °C): 11.1 |
